In brackets after ≈: the same amount, converted by molar mass.
Columns and labels:
Type in all cases: functional
Staphylococcus aureus [1] = experiment: Antibacterial activity against Staphylococcus aureus KCTC 4220 after 24 hrs by two-fold serial dilution method; conditions: KCTC 4220, 24 h
Staphylococcus aureus [2] = experiment: Antibacterial activity against Staphylococcus aureus KCTC 209 after 24 hrs by two-fold serial dilution method; conditions: KCTC 209, 24 h
Staphylococcus aureus [3] = experiment: Antibacterial activity against Staphylococcus aureus KCTC 503 after 24 hrs by two-fold serial dilution method; conditions: KCTC 503, 24 h
Escherichia coli = experiment: Antibacterial activity against Escherichia coli 1356 after 24 hrs by two-fold serial dilution method; conditions: Escherichia coli, 1356, 24 h
Staphylococcus aureus [4] = experiment: Antibacterial activity against methicillin-resistant Staphylococcus aureus CCARM 3167 after 24 hrs by two-fold serial dilution method; conditions: CCARM 3167, 24 h
Staphylococcus aureus [5] = experiment: Antibacterial activity against methicillin-resistant Staphylococcus aureus CCARM 3506 after 24 hrs by two-fold serial dilution method; conditions: CCARM 3506, 24 h
Staphylococcus aureus [6] = experiment: Antibacterial activity against quinolone-resistant Staphylococcus aureus CCARM 3505 after 24 hrs by two-fold serial dilution method; conditions: CCARM 3505, 24 h
Staphylococcus aureus [7] = experiment: Antibacterial activity against quinolone-resistant Staphylococcus aureus CCARM 3519 after 24 hrs by two-fold serial dilution method; conditions: CCARM 3519, 24 h

Compound | MIC (Staphylococcus aureus [1]) | MIC (Staphylococcus aureus [2]) | MIC (Staphylococcus aureus [3]) | MIC (Escherichia coli) | MIC (Staphylococcus aureus [4]) | MIC (Staphylococcus aureus [5]) | MIC (Staphylococcus aureus [6]) | MIC (Staphylococcus aureus [7])
O=C(COc1ccc(/C=C2\SC(=S)N([C@@H](Cc3c[nH]c4ccccc34)C(=O)O)C2=O)cc1)c1ccccc1Cl | 8 µg/mL (≈ 13.9 µM) | 4 µg/mL (≈ 6.93 µM) | 4 µg/mL (≈ 6.93 µM) | > 64 µg/mL | 8 µg/mL (≈ 13.9 µM) | 8 µg/mL (≈ 13.9 µM) | 8 µg/mL (≈ 13.9 µM) | 8 µg/mL (≈ 13.9 µM)
COc1ccccc1C(=O)COc1ccc(/C=C2\SC(=S)N([C@@H](Cc3c[nH]c4ccccc34)C(=O)O)C2=O)cc1 | 8 µg/mL (≈ 14 µM) | 8 µg/mL (≈ 14 µM) | 8 µg/mL (≈ 14 µM) | > 64 µg/mL | 8 µg/mL (≈ 14 µM) | 8 µg/mL (≈ 14 µM) | 8 µg/mL (≈ 14 µM) | 8 µg/mL (≈ 14 µM)
O=C(COc1ccc(/C=C2\SC(=S)N([C@@H](Cc3ccccc3)C(=O)O)C2=O)cc1)c1ccc(Cl)cc1 | 4 µg/mL (≈ 7.43 µM) | 4 µg/mL (≈ 7.43 µM) | 8 µg/mL (≈ 14.9 µM) | > 64 µg/mL | 4 µg/mL (≈ 7.43 µM) | 4 µg/mL (≈ 7.43 µM) | 4 µg/mL (≈ 7.43 µM) | 4 µg/mL (≈ 7.43 µM)
O=C(COc1ccc(/C=C2\SC(=S)N([C@@H](Cc3ccc(O)cc3)C(=O)O)C2=O)cc1)c1ccc(Cl)cc1 | 16 µg/mL (≈ 28.9 µM) | 8 µg/mL (≈ 14.4 µM) | 8 µg/mL (≈ 14.4 µM) | > 64 µg/mL | 8 µg/mL (≈ 14.4 µM) | 16 µg/mL (≈ 28.9 µM) | 8 µg/mL (≈ 14.4 µM) | 16 µg/mL (≈ 28.9 µM)
CCn1cc(C(=O)O)c(=O)c2cc(F)c(N3CCNCC3)cc21 [NORFLOXACIN] | 2 µg/mL (≈ 6.26 µM) | 2 µg/mL (≈ 6.26 µM) | 2 µg/mL (≈ 6.26 µM) | 16 µg/mL (≈ 50.1 µM) | 8 µg/mL (≈ 25.1 µM) | 4 µg/mL (≈ 12.5 µM) | > 64 µg/mL | > 64 µg/mL
Cc1onc(-c2ccccc2)c1C(=O)N[C@@H]1C(=O)N2[C@@H]1SC(C)(C)[C@@H]2C(=O)O [OXACILLIN] | 1 µg/mL (≈ 2.49 µM) | 1 µg/mL (≈ 2.49 µM) | 1 µg/mL (≈ 2.49 µM) | > 64 µg/mL | > 64 µg/mL | > 64 µg/mL | 1 µg/mL (≈ 2.49 µM) | 1 µg/mL (≈ 2.49 µM)
O=C(COc1ccc(/C=C2\SC(=S)N([C@@H](Cc3c[nH]c4ccccc34)C(=O)O)C2=O)cc1)c1ccc(F)cc1 | 4 µg/mL (≈ 7.13 µM) | 4 µg/mL (≈ 7.13 µM) | 4 µg/mL (≈ 7.13 µM) | > 64 µg/mL | 4 µg/mL (≈ 7.13 µM) | 4 µg/mL (≈ 7.13 µM) | 4 µg/mL (≈ 7.13 µM) | 4 µg/mL (≈ 7.13 µM)
O=C(COc1ccc(/C=C2\SC(=S)N([C@@H](Cc3c[nH]c4ccccc34)C(=O)O)C2=O)cc1)c1ccccc1Br | 8 µg/mL (≈ 12.9 µM) | 4 µg/mL (≈ 6.44 µM) | 4 µg/mL (≈ 6.44 µM) | > 64 µg/mL | 4 µg/mL (≈ 6.44 µM) | 8 µg/mL (≈ 12.9 µM) | 4 µg/mL (≈ 6.44 µM) | 8 µg/mL (≈ 12.9 µM)
O=C(COc1ccc(/C=C2\SC(=S)N([C@@H](Cc3ccc(O)cc3)C(=O)O)C2=O)cc1)c1ccccc1 | 32 µg/mL (≈ 61.6 µM) | 32 µg/mL (≈ 61.6 µM) | 32 µg/mL (≈ 61.6 µM) | > 64 µg/mL | 32 µg/mL (≈ 61.6 µM) | 32 µg/mL (≈ 61.6 µM) | 32 µg/mL (≈ 61.6 µM) | 32 µg/mL (≈ 61.6 µM)
O=C(COc1ccc(/C=C2\SC(=S)N([C@@H](Cc3ccc(O)cc3)C(=O)O)C2=O)cc1)c1ccc(Cl)cc1Cl | 8 µg/mL (≈ 13.6 µM) | 4 µg/mL (≈ 6.8 µM) | 4 µg/mL (≈ 6.8 µM) | > 64 µg/mL | 8 µg/mL (≈ 13.6 µM) | 8 µg/mL (≈ 13.6 µM) | 8 µg/mL (≈ 13.6 µM) | 8 µg/mL (≈ 13.6 µM)
O=C(COc1ccc(/C=C2\SC(=S)N([C@@H](Cc3ccccc3)C(=O)O)C2=O)cc1)c1ccccc1Br | 8 µg/mL (≈ 13.7 µM) | 4 µg/mL (≈ 6.87 µM) | 8 µg/mL (≈ 13.7 µM) | > 64 µg/mL | 4 µg/mL (≈ 6.87 µM) | 8 µg/mL (≈ 13.7 µM) | 4 µg/mL (≈ 6.87 µM) | 8 µg/mL (≈ 13.7 µM)
O=C(COc1ccc(/C=C2\SC(=S)N([C@@H](Cc3c[nH]c4ccccc34)C(=O)O)C2=O)cc1)c1cccc(Br)c1 | 4 µg/mL (≈ 6.44 µM) | 2 µg/mL (≈ 3.22 µM) | 4 µg/mL (≈ 6.44 µM) | > 64 µg/mL | 4 µg/mL (≈ 6.44 µM) | 4 µg/mL (≈ 6.44 µM) | 4 µg/mL (≈ 6.44 µM) | 4 µg/mL (≈ 6.44 µM)
COc1cccc(C(=O)COc2ccc(/C=C3\SC(=S)N([C@@H](Cc4ccccc4)C(=O)O)C3=O)cc2)c1 | 8 µg/mL (≈ 15 µM) | 8 µg/mL (≈ 15 µM) | 8 µg/mL (≈ 15 µM) | > 64 µg/mL | 8 µg/mL (≈ 15 µM) | 8 µg/mL (≈ 15 µM) | 8 µg/mL (≈ 15 µM) | 8 µg/mL (≈ 15 µM)
O=C(COc1ccc(/C=C2\SC(=S)N([C@@H](Cc3ccccc3)C(=O)O)C2=O)cc1)c1ccc(Br)cc1 | 8 µg/mL (≈ 13.7 µM) | 8 µg/mL (≈ 13.7 µM) | 8 µg/mL (≈ 13.7 µM) | > 64 µg/mL | 4 µg/mL (≈ 6.87 µM) | 8 µg/mL (≈ 13.7 µM) | 4 µg/mL (≈ 6.87 µM) | 8 µg/mL (≈ 13.7 µM)
O=C(COc1ccc(/C=C2\SC(=S)N([C@@H](Cc3c[nH]c4ccccc34)C(=O)O)C2=O)cc1)c1ccccc1F | 8 µg/mL (≈ 14.3 µM) | 8 µg/mL (≈ 14.3 µM) | 8 µg/mL (≈ 14.3 µM) | > 64 µg/mL | 8 µg/mL (≈ 14.3 µM) | 8 µg/mL (≈ 14.3 µM) | 8 µg/mL (≈ 14.3 µM) | 8 µg/mL (≈ 14.3 µM)
O=C(COc1ccc(/C=C2\SC(=S)N([C@@H](Cc3ccccc3)C(=O)O)C2=O)cc1)c1ccccc1F | 8 µg/mL (≈ 15.3 µM) | 4 µg/mL (≈ 7.67 µM) | 8 µg/mL (≈ 15.3 µM) | > 64 µg/mL | 4 µg/mL (≈ 7.67 µM) | 4 µg/mL (≈ 7.67 µM) | 4 µg/mL (≈ 7.67 µM) | 4 µg/mL (≈ 7.67 µM)
O=C(COc1ccc(/C=C2\SC(=S)N([C@@H](Cc3ccccc3)C(=O)O)C2=O)cc1)c1cccc(Br)c1 | 4 µg/mL (≈ 6.87 µM) | 4 µg/mL (≈ 6.87 µM) | 4 µg/mL (≈ 6.87 µM) | > 64 µg/mL | 4 µg/mL (≈ 6.87 µM) | 4 µg/mL (≈ 6.87 µM) | 4 µg/mL (≈ 6.87 µM) | 4 µg/mL (≈ 6.87 µM)
Cc1ccc(C(=O)COc2ccc(/C=C3\SC(=S)N([C@@H](Cc4ccc(O)cc4)C(=O)O)C3=O)cc2)cc1 | 32 µg/mL (≈ 60 µM) | 4 µg/mL (≈ 7.5 µM) | 8 µg/mL (≈ 15 µM) | > 64 µg/mL | 16 µg/mL (≈ 30 µM) | 16 µg/mL (≈ 30 µM) | 16 µg/mL (≈ 30 µM) | 16 µg/mL (≈ 30 µM)
O=C(COc1ccc(/C=C2\SC(=S)N([C@@H](Cc3c[nH]c4ccccc34)C(=O)O)C2=O)cc1)c1ccc(Cl)cc1Cl | 8 µg/mL (≈ 13.1 µM) | 4 µg/mL (≈ 6.54 µM) | 8 µg/mL (≈ 13.1 µM) | > 64 µg/mL | 4 µg/mL (≈ 6.54 µM) | 8 µg/mL (≈ 13.1 µM) | 4 µg/mL (≈ 6.54 µM) | 8 µg/mL (≈ 13.1 µM)
O=C(COc1ccc(/C=C2\SC(=S)N([C@@H](Cc3ccccc3)C(=O)O)C2=O)cc1)c1ccccc1Cl | 8 µg/mL (≈ 14.9 µM) | 8 µg/mL (≈ 14.9 µM) | 8 µg/mL (≈ 14.9 µM) | > 64 µg/mL | 4 µg/mL (≈ 7.43 µM) | 4 µg/mL (≈ 7.43 µM) | 4 µg/mL (≈ 7.43 µM) | 4 µg/mL (≈ 7.43 µM)
COc1cccc(C(=O)COc2ccc(/C=C3\SC(=S)N([C@@H](Cc4c[nH]c5ccccc45)C(=O)O)C3=O)cc2)c1 | 8 µg/mL (≈ 14 µM) | 8 µg/mL (≈ 14 µM) | 8 µg/mL (≈ 14 µM) | > 64 µg/mL | 8 µg/mL (≈ 14 µM) | 8 µg/mL (≈ 14 µM) | 8 µg/mL (≈ 14 µM) | 8 µg/mL (≈ 14 µM)
O=C(COc1ccc(/C=C2\SC(=S)N([C@@H](Cc3ccc(O)cc3)C(=O)O)C2=O)cc1)c1ccccc1Cl | 16 µg/mL (≈ 28.9 µM) | 16 µg/mL (≈ 28.9 µM) | 8 µg/mL (≈ 14.4 µM) | > 64 µg/mL | 8 µg/mL (≈ 14.4 µM) | 16 µg/mL (≈ 28.9 µM) | 8 µg/mL (≈ 14.4 µM) | 16 µg/mL (≈ 28.9 µM)
COc1ccccc1C(=O)COc1ccc(/C=C2\SC(=S)N([C@@H](Cc3ccc(O)cc3)C(=O)O)C2=O)cc1 | 32 µg/mL (≈ 58.2 µM) | 8 µg/mL (≈ 14.6 µM) | 8 µg/mL (≈ 14.6 µM) | > 64 µg/mL | 8 µg/mL (≈ 14.6 µM) | 8 µg/mL (≈ 14.6 µM) | 8 µg/mL (≈ 14.6 µM) | 8 µg/mL (≈ 14.6 µM)
O=C(COc1ccc(/C=C2\SC(=S)N([C@@H](Cc3c[nH]c4ccccc34)C(=O)O)C2=O)cc1)c1ccc(Br)cc1 | 8 µg/mL (≈ 12.9 µM) | 4 µg/mL (≈ 6.44 µM) | 4 µg/mL (≈ 6.44 µM) | > 64 µg/mL | 8 µg/mL (≈ 12.9 µM) | 8 µg/mL (≈ 12.9 µM) | 8 µg/mL (≈ 12.9 µM) | 8 µg/mL (≈ 12.9 µM)
